Data on 5 molecules can be found in patent US11690915.

Structures are written as SMILES. Like-named read-outs stand apart in the source and are kept apart here.

For data set [1] the following is noted: from CC(C)(CO)Cc1c(-c2ccnc(N3CCN(C(=O)OCc4ccccc4)CC3)c2)n(C(C)(C)C#N)c2ccc(-c3csc(C[C@H](NC(=O)OC(C)(C)C)C(=O)N4CCC[C@@H](C(=O)O)N4)n3)cc12; ester bond; 18-membered ring; EDC/HOBt/DIEA; DCM; 1.05 mM.
For data set [2] the following is noted: 18-membered ring.

Turning to `CC1(C)COC(=O)[C@@H]2CCCN(N2)C(=O)[C@@H](NC(=O)OC(C)(C)C)Cc2nc(cs2)-c2ccc3c(c2)c(c(-c2ccnc(N4CCN(C(=O)OCc5ccccc5)CC4)c2)n3C(C)(C)C#N)C1`, the ring closure, crude yield in data set [1] was 52%.
For `CC1(C)COC(=O)[C@@H]2CCCN(N2)C(=O)[C@@H](NC(=O)OC(C)(C)C)Cc2nc(cs2)-c2ccc3[nH]c(I)c(c3c2)C1`, the ring closure, isolated yield in data set [2] (from CC(C)(CO)Cc1c(I)[nH]c2ccc(-c3csc(C[C@H](NC(=O)OC(C)(C)C)C(=O)N4CCC[C@@H](C(=O)O)N4)n3)cc12, ester bond, EDC/HOBt/DIEA, DCM, 17.6 mM) worked out at 45.9%.
`CCn1c(-c2cc(N3CCN(C(=O)OCc4ccccc4)CC3)cnc2[C@H](C)OC)c2c3cc(ccc31)-c1csc(n1)C[C@H](NC(=O)OC(C)(C)C)C(=O)N1CCC[C@H](N1)C(=O)OCC(C)(C)C2`: in data set [2] (from CCn1c(-c2cc(N3CCN(C(=O)OCc4ccccc4)CC3)cnc2[C@H](C)OC)c(CC(C)(C)CO)c2cc(-c3csc(C[C@H](NC(=O)OC(C)(C)C)C(=O)N4CCC[C@@H](C(=O)O)N4)n3)ccc21, ester bond, EDC/HOBt/DIEA, MeCN, 10.3 mM, 25.0 °C), the ring closure, isolated yield came out at 54.8%.
For `CO[C@@H](C)c1ncccc1-c1c2c3cc(ccc3n1CCOC1CCOCC1)-c1csc(n1)C[C@H](NC(=O)OC(C)(C)C)C(=O)N1CCC[C@H](N1)C(=O)OCC(C)(C)C2`, in data set [2] (from CO[C@@H](C)c1ncccc1-c1c(CC(C)(C)CO)c2cc(-c3csc(C[C@H](NC(=O)OC(C)(C)C)C(=O)N4CCC[C@@H](C(=O)O)N4)n3)ccc2n1CCOC1CCOCC1, ester bond, EDC/HOBt/DIEA, DCM, 7.0 mM), the ring closure, isolated yield was 68%.
`CCn1c(-c2cccnc2[C@H](C)OC)c2c3cc(ccc31)-c1csc(n1)[C@@H](OCC(F)F)[C@H](NC(=O)OC(C)(C)C)C(=O)N1CCC[C@H](N1)C(=O)OCC(C)(C)C2`: in data set [2] (from CCn1c(-c2cccnc2[C@H](C)OC)c(CC(C)(C)COC(=O)[C@@H]2CCCN(C(=O)[C@@H](NC(=O)OC(C)(C)C)[C@H](OCC(F)F)c3nc(Br)cs3)N2)c2cc(B3OC(C)(C)C(C)(C)O3)ccc21, cc_pd bond, Pd(DtBPF)Cl2/K3PO4, toluene/1,4-dioxane/H2O 3:1:1, 10.0 mM, 60.0 °C, 1.0 h), the ring closure, isolated yield was 59%.
